How the values were obtained:
wheat immature embryos = assay: Killing curve: in vitro germination of immature embryos and seedling growth; type: in vivo, Triticum aestivum
Method: In order to establish effective concentrations of D-serine and D-alanine on inhibiting growth of tissue cultured wheat cells, a bioassay system using immature embryos was applied. Immature embryos 2 mm in length were dissected onto germination medium with the selection agents, and incubated at 27° C. in light. The number of germinated embryos with well-developed shoots and brunched shoots were scored after 14 days.
Immature embryos 2 mm in size were isolated from the sterilized caryopses. The embryos were cultured on PAW-5 hormone free medium for germination in dark. Seedlings growth on D-amino acid selection was observed after 2 weeks. Most of the embryos germinated but the seedlings growth was inhibited when roots emerge and the uptake of the selection compound was direct from the medium. The Lethal Dose (LD 100) for seedlings germination and growth was 1 mM concentration of both D-amino acids tested (Table 6). Seedlings derived from embryos isolated from the immature caryopsis without endosperms were susceptible to the selection in concentration higher than 1 mM (FIG. 8).

[1] = test system: wheat variety Canon immature embryos / embryogenic callus; assay: Agrobacterium-mediated transformation with dsdA constructs and selection of transgenic plants; type: cell-based, Triticum aestivum
Method: Explants were washed with PAW-Inf. medium and immersed in the above-described bacterial suspension for 2 h at 26° C. At the end of infection the explants were placed with scutellum side up on PAW-1 medium. The residual bacterial suspension is removed by pipeting out and air-drying of the infected embryos by opening plates for 15 min on the sterile banch. Plates were sealed with Parafilm and placed in thermostat at 26° C. in the dark for 5-6 days co-cultivation.
After co-cultivation period the explants were washed with sterile water and 500 mg/L Cefotaxime and filter paper dried before being transferred to PAW-2 callus induction-recovery medium containing 160 mg/l Timentin for 14 days (7 days dark/7 days semi light; 13.2 μmol m^−2s^−1). Explants with embryogenic callus were subculture to PAW-2 callus-proliferation medium containing 160 mg/l Timentin and corresponding selection 5 mM D-serine or 5 mM D-alanine or 3 mg/l bialaphos. In some experiments the selection on D-amino acids was starting on PAW-2 callus induction medium 0, 7, 14 and 21 days after co cultivation. Embryogenic callus was subculture twice on fresh selective medium for callus maintaining and regeneration on PAW-4 medium with corresponding selection. Cultures were maintained at 23° C. on light 60.2 μmol m^−2s^−1. Regenerated shoots were subculture to PAW-5 hormone free medium with corresponding selection (5 mM D-serine or 5 mM D-alanine or 3 mg/l bialaphos) for further growth and rooting. All media used in the transformation experiments were filter sterilized and are listed in above. After analyses transgenic plants were transferred to soil and placed for further growth in greenhouse. 1.4 Molecular and expression studies of the transgenic plants
Freshly isolated immature embryos from Canon were inoculated with Agrobacterium. In all experiments Agrobacterium tumefacience LBA4404 (pSB1/pRLM167) (SEQ ID NO: 11) was used. The pRLM167 is a super binary vector containing p-ZmUBI+I::c-dsdA::t-OCS and p-ZmUBI+I::c-PAT::t-OCS selectable marker genes in expression cassettes (FIG. 1). Following co cultivation the explants were given a chance to recover for 14 days on callus induction selection free medium containing 160 mg/l Timentin to inhibit bacterial growth. Under these conditions 59% to 76% of the embryogenic callus developed over the all surface of immature embryos. Embryogenic callus was split in two and transferred to two the corresponding selection medium containing 5-mM D-serine or 3 mg/l bialaphos. During subsequent growth of callus, regeneration of plantlets, shoots elongation and roots formation the respective selection pressure was maintained in each of the corresponding medium. After 7 weeks of selection 38%-47% of the embryogenic calli regenerated with plants when selected on bialaphos or on D-serine respectively. Further selection of the regenerants was performed during the elongation and rooting of the regenerants for an additional 3 weeks. Intact in vitro transgenic shoots were selected within 10-12 weeks after co cultivation.
Freshly isolated immature embryos from Canon were inoculated with Agrobacterium. In all experiments Agrobacterium tumefacience super binary vector system based on LBA4404 (pSB1) was used. The constructs pRLM179, pRLM166, pRLM151 (FIG. 2. I, II and III) containing dsdA selectable marker gene alone or with a second gene (ahas or gusINT) were used for transformation. The explants were cultured on selection medium right away after co-cultivation with Agrobacterium or were cultivated on callus induction—recovery medium for 7, 14 and 21 days containing only 160 mg/l Timentin for inhibiting bacterial growth. Furthermore calli were sub cultured to fresh selection PAW-2 medium for proliferation. Embryogenic calli were transferred on PAW-4 selection medium for regeneration 5-6 weeks after transformation. The emerging plantlets were further grown and rooted on PAW-5 hormone free selection medium. […]

wheat callus = assay: Killing curve: callus growth and regeneration under constant selection pressure; type: cell-based, Triticum aestivum
Method: To define the sensitivity of wheat tissues during transformation when D-Serine and D-Alanine are present as selection agents regeneration experiments with immature embryos were designed. Immature embryos were immersed in PAWinf medium and subjected to all steps of callus induction, callus maintaining and regeneration in transformation protocol above.
Sensitivity of callus tissue under constant selection pressure were evaluated using range of concentrations: 0.5 mM, 1 mM, 3 mM, 5 mM, 10 mM, 25 mM, 50 mM. Experiments were performed in triplicates. Percentage of embryos forming embryos-genic callus was scored on PAW-4 regeneration medium. At the end of shoots elongation regeneration capacity of the calluses was scored as calluses regenerating shoots and number of shoots per callus.
Range of the tested concentrations 0.5-50 mM D-ser and D-ala are evaluated in replicating regeneration experiments. The effect of selective compounds is estimated during callus growth and shoots formation following transformation procedure on medium with D-serine and D-alanine (Table 4).

[2] = construct pRLM167 (dsdA/pat), selection on 5 mM D-serine or 3 mg/l bialaphos
[3] = pRLM179 (dsdA/AHAS), 3 mM, selection started 21 days after co-cultivation
[4] = pRLM179 (dsdA/AHAS), 5 mM, selection started 21 days after co-cultivation
[5] = pRLM179 (dsdA/AHAS), 10 mM, selection started 21 days after co-cultivation

## N[C@H](CO)C(=O)O [D-serine]
Wheat immature embryos; Bobwhite, 0.5 mM
  In vitro germination, Immature Embryos (%): 46%
Wheat immature embryos; Bobwhite, 1 mM
  In vitro germination, Immature Embryos (%): 0%
Wheat immature embryos; Bobwhite, 5 mM
  In vitro germination, Immature Embryos (%): 0%
Wheat immature embryos; Bobwhite, 10 mM
  In vitro germination, Immature Embryos (%): 0%
Wheat immature embryos; Canon, 0.5 mM
  In vitro germination, Immature Embryos (%): 34%
Wheat immature embryos; Canon, 1 mM
  In vitro germination, Immature Embryos (%): 0%
Wheat immature embryos; Canon, 5 mM
  In vitro germination, Immature Embryos (%): 0%
Wheat immature embryos; Canon, 10 mM
  In vitro germination, Immature Embryos (%): 0%
[1]; [2]
  ER Escape Rate (% of non-transgenic regenerants out of all selected plants): 17%
  TE Transformation Efficiency (% of transgenic plants out of the explants): 2.1%
[1]; dsdA constructs with ahas or gusINT, selection on D-serine
  Average transformation efficiencies for both constructs: about 1%
[1]; pRLM166, 5 mM, start of selection 21 days
  TE (%) Transformation Efficiency: 0.69%
[1]; [3]
  ER (%) Escapes Rate: 100%
  TE (%) Transformation Efficiency: 0%
[1]; [4]
  ER (%) Escapes Rate: 25%
  TE (%) Transformation Efficiency: 1.39%
[1]; [5]
  ER (%) Escapes Rate: 0%
  TE (%) Transformation Efficiency: 0.77%
Wheat callus; 0.5 mM
  regeneration capacity of the calli measured as number of regenerants per callus line: clear increase
Wheat callus; 3 mM
  number of calli regenerating plants reduced: 50%
Wheat callus; 5 mM
  Regeneration capacity of the calli reduced: 70%
Wheat callus; Bobwhite, 0.5 mM
  Regenerated Embryogenic Lines (%): 83%
Wheat callus; Bobwhite, 3 mM
  Regenerated Embryogenic Lines (%): 57%
Wheat callus; Bobwhite, 5 mM
  Regenerated Embryogenic Lines (%): 32.5%
Wheat callus; Bobwhite, 10 mM
  Regenerated Embryogenic Lines (%): 10%
Wheat callus; Bobwhite, 15 mM
  Regenerated Embryogenic Lines (%): 6%
Wheat callus; Bobwhite, 25 mM
  Regenerated Embryogenic Lines (%): 0%
Wheat callus; Bobwhite, 50 mM
  Regenerated Embryogenic Lines (%): 0%
Wheat callus; Canon, 0.5 mM
  Regenerated Embryogenic Lines (%): 84%
Wheat callus; Canon, 3 mM
  Regenerated Embryogenic Lines (%): 56%
Wheat callus; Canon, 5 mM
  Regenerated Embryogenic Lines (%): 23%
Wheat callus; Canon, 10 mM
  Regenerated Embryogenic Lines (%): 6%
Wheat callus; Canon, 15 mM
  Regenerated Embryogenic Lines (%): 3%
Wheat callus; Canon, 25 mM
  Regenerated Embryogenic Lines (%): 0%
Wheat callus; Canon, 50 mM
  Regenerated Embryogenic Lines (%): 0%
Wheat callus; tested in both varieties
  lethal dose (LD 100) for regeneration response of callus: 25 mM

Reference: patent US20090106856A1, “Selection System for Wheat” (BASF PLANT SCIENCE GMBH, priority 2005, published 2009)
